{
  "source": "patent US20230142274A1",
  "about": "(SIMCERE PHARMACEUTICAL CO., LTD., priority 2020, published 2023)",
  "key": {"[1]": {"assay": "Pharmacokinetic experiment in mouse", "format": "in vivo", "conditions": "female CB17-SCID mice, oral dose 25 mg/kg", "from_the_text": "CB17-SCID mice were purchased from Beijing Vital River Laboratory Animal Technology Co., Ltd.\nDMSO, HP-β-CD (hydroxypropyl-β-cyclodextrin), PEG400 (polyethylene glycol 400), and Vitamin E TPGS (D-α-tocopherol polyethylene glycol 1000 succinate) were purchased from Sigma.\nSix female CB17-SCID mice (20 g to 30 g, aged 4 to 6 weeks) were divided randomly into two groups, with 3 mice in each group. In Group 1, the compound in a vehicle of an aqueous solution containing 5% dimethyl sulfoxide and 95% hydroxypropyl-β-cyclodextrin (10%, w/v) was administered by intravenous injection via tail vein. In Group 2, a corresponding dose of the compound in a vehicle of an aqueous solution containing 30% polyethylene glycol 400 and 70% D-α-tocopherol polyethylene glycol 1000 succinate (10%, w/v) was orally administered. The animals were fed normally with food and water before experiment. The mice in each group underwent intravenous blood collection before administration and at 0.083 h (intravenous injection group only), 0.25 h, 0.5 h, 1 h, 2 h, 4 h, 6 h, 8 h, and 24 h after administration. The collected whole blood samples were placed in K2EDTA anticoagulation tubes and centrifuged for 5 min (4000 rpm, 4° C.) to collect the plasma for testing.\n10 μL of the mouse plasma sample was taken, and 150 μL of acetonitrile solvent (containing the internal standard compound) was added to precipitate protein. After the resultant was vortexed for 0.5 min and centrifuged (4700 rpm, 4° C.) for 15 min, the supernatant was subjected to 2-fold dilution with water containing 0.05% (v/v) FA and was then subjected to quantitative measurement in LC-MS/MS system (AB Sciex Triple Quad 6500+). A calibration standard curve was prepared in CB17-SCID mouse plasma along with quality control samples to determine the plasma concentration. As for a 10× diluted sample, 2 μL of sample was taken and 18 μL of blank plasma was added. After being vortexed for 0.5 min, the mixture was added with 300 μL of acetonitrile solvent (containing the internal standard compound) so as to precipitate protein. The rest of the processing steps were the same as those for the undiluted samples."}, "WI-38 cells": {"tested_on": "WI-38 cells", "assay": "Inhibition of human WI-38 embryonic lung cell proliferation (Cell-Titer Glo)", "format": "cell-based", "conditions": "Homo sapiens, 72 h, 3 days incubation, read-out: Anti-Proliferative Activity Against WI-38 cells IC50", "procedure": "Introduction of the experimental principle: After the RAD51 inhibitor to be tested was co-incubated with human embryonic lung cells for a period of time, the influence of the test compound on cell proliferation was measured by a method for counting cell proliferation based on the quantitative measurement of intracellular ATP content.\nMaterials and Cells: WI-38 cells were purchased from ATCC; fetal bovine serum, 1640 medium and penicillin-streptomycin were purchased from Gibco Inc. (U.S.), 96-well plates were purchased from Corning Inc. (U.S.), and Cell-Titer Glo reagent was purchased from Promega Corporation (U.S.).\nCell culture: WI-38 cells were cultured in an EMEM culture medium containing 10% fetal bovine serum and 1% penicillin-streptomycin at 37° C. in an atmosphere containing 5% CO2. Cells in logarithmic growth phase could be used for experiments.\nAssay of cell proliferation and viability: Cell-Titer Glo reagent was used to measure the inhibitory activities of the compounds on the proliferation of WI-38 cell strain. The concentration of cells was adjusted, and the cells were seeded in a 96-well plate and cultured at 37° C. in an atmosphere containing 5% CO2 for 24 hours. The powder of the compound was dissolved in 100% DMSO to form a 10 mM solution. 10 μl of the solution of the compound was aspirated and transferred into a 96-well compound plate containing 20 μl of DMSO solution in each well for 3-fold dilution and was then formulated to 10 serial dilutions. Thereafter, 2 μl of the solution of the compound was aspirated from the corresponding well and added correspondingly into a 96-well intermediate compound dilution plate containing 78 μl of complete culture medium in each well. The resultant was mixed well, and the plate was centrifuged at 1000 rpm for 1 minute. Finally, 10 μl of the solution of the compound was aspirated from the corresponding well of the 96-well intermediate compound dilution plate, and transferred into the corresponding well of the cell culture plate containing 90 μl of complete culture medium. The final concentration of DMSO was 0.25%. After the addition of the compound, the cells were continued to be incubated for 3 days at 37° C. in an atmosphere containing 5% CO2. Cell-Titer Glo reagent was added to measure cell viability.\n% Compound inhibition was calculated and IC50 of the compound was fitted;\n% Compound inhibition=1−100%×(Signal−Bottom)/(Top−Bottom)"}, "Daudi cells": {"tested_on": "Daudi cells", "assay": "Inhibition of human Daudi lymphoma cell proliferation (Cell-Titer Glo)", "format": "cell-based", "conditions": "Homo sapiens, 72 h, 3 days incubation, read-out: Anti-Proliferative Activity Against Daudi cells IC50", "summary_of_the_method": "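Daudi cells in RPMI 1640 with 10% FBS were seeded and grown 24 h, then exposed for 3 days (37 °C, 5% CO2) to 10-point 3-fold serial dilutions at 0.25% final DMSO. Viability was read by CellTiter-Glo ATP luminescence, and IC50 was fitted from % inhibition against top/bottom controls.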"}, "[2]": {"assay": "Metabolic stability in liver microsomes (human)", "format": "in vitro ADME", "conditions": "pH 7.4; Human being liver microsomes 0.5 mg/mL, compound 1 μM, NADPH 1 mM, 37° C.", "procedure": "(§1) 1. Source of liver microsomes: human liver microsomes (Corning 452117), CD-1 mouse liver microsomes (XENOTECH M1000)\n(§2) 1. Formulation of 100 mM phosphate buffer solution (PBS): 7.098 g of Na2HPO4 was weighed and ultrasonically dissolved in 500 mL of pure water to form Solution A. 3.400 g of KH2PO4 was weighed and ultrasonically dissolved in 250 mL of pure water to form Solution B. Solution A was placed in a stirrer and Solution B was slowly added until the pH value reached 7.4, thus formulating 100 mM PBS buffer solution.\n(§3) The reaction system was formulated according to Table 3 below.\n(§4) 3. The reaction system was placed in a water bath at 37° C. and pre-incubated for 10 minutes. 40 μL of 10 mM NADPH solution (NADPH was dissolved in 100 mM phosphate buffer solution) was added into the reaction system, and the final concentration of NADPH was 1 mM. 40 μL of Phosphate buffer solution was used instead of the NADPH solution as a negative control. The negative control was used to rule out the influence caused by the chemical stability of the compounds per se.\n(§5) 4. The reaction system was added with 4 μL of 100 μM the compound of the present disclosure and Verapamil (the positive control compound) (DMSO as the vehicle), so that the reaction was initiated. The final concentration of the compound was 1 μM.\n(§6) 5. At 0.5, 15, 30, 45 and 60 minutes, after being well mixed in a vortex oscillator, 50 μL of the incubated samples were taken out respectively, and the reaction was terminated with ice acetonitrile (4-fold) containing an internal standard. The samples were centrifuged at 3220 g for 45 minutes. After the centrifugation, 90 μL of the supernatants were transferred to a sample plate and mixed well with 90 μL of ultrapure water for LC-MS/MS analysis.\n(§7) All data were calculated by Microsoft Excel software. Peak areas were determined from the extracted ion chromatograms. The in-vitro half-life (t1/2) of the parent drug was determined by the linear fitting of the natural logarithm of the elimination percentage of the parent drug versus time.\n(§8) The in-vitro half-life (t1/2) was calculated from the slope: […]"}, "[3]": {"assay": "Metabolic stability in liver microsomes (CD-1 mouse)", "format": "in vitro ADME", "conditions": "pH 7.4; CD-1 mouse liver microsomes 0.5 mg/mL, compound 1 μM, NADPH 1 mM, 37° C.", "procedure": "as §1, §2, §3, §4, §5, §6, §7, §8"}},
  "data": [
    {"molecule": "CC(C)OC(=O)NC1CCC(c2ncc(-c3ccc(Nc4cnn(C)c4)cc3S(=O)(=O)C3CC3)s2)CC1", "note": "(stereo not drawn) [Example 70, isopropyl trans-N-[4-[5-[2-cyclopropylsulfonyl]-4-[(1-methylpyrazol-4-yl)amino]phenyl]thiazol-2-yl]cyclohexyl]carbamate]", "values": [
      {"measurement": "Drug Exposure", "setting": "[1]", "result": 137.892, "unit": "µg·h/mL"},
      {"measurement": "Max. Drug Conc.", "setting": "[1]", "result": 32840, "unit": "ng/mL"},
      {"measurement": "Peak Time of Drug Conc.", "setting": "[1]", "result": 0.75, "unit": "h"},
      {"measurement": "half-life", "setting": "[1]; mouse, plasma, read-out: Drug Elimination Half-life (converted)", "result": 5, "unit": "h"},
      {"measurement": "IC50", "setting": "WI-38 cells", "result": 21000, "unit": "nM"},
      {"measurement": "IC50", "setting": "Daudi cells", "result": 8, "unit": "nM"}
    ]},
    {"molecule": "CC(C)OC(=O)N[C@H]1CC[C@H](c2ncc(-c3ccc(Nc4cc(CO)[nH]n4)cc3S(=O)(=O)C3CC3)s2)CC1", "note": "[Example 72, isopropyl trans-(4-(5-(2-(cyclopropylsulfonyl)-4-((5-(hydroxymethyl)-1H-pyrazol-3-yl)amino)phenyl)thiazol-2-yl)cyclohexyl)carbamate]", "values": [
      {"measurement": "half-life at 1 μM", "setting": "[2]", "result": 7.03, "unit": "h"},
      {"measurement": "half-life at 1 μM", "setting": "[3]", "result": 4.52, "unit": "h"},
      {"measurement": "IC50", "setting": "WI-38 cells", "result": 20000, "unit": "nM"},
      {"measurement": "IC50", "setting": "Daudi cells", "result": 4, "unit": "nM"}
    ]},
    {"molecule": "CC(C)OC(=O)NC1CCC(c2ncc(-c3ccc(Nc4cnn(CCO)c4)cc3S(=O)(=O)C3CC3)s2)CC1", "note": "(stereo not drawn) [Example 84, isopropyl trans-N-[4-[5-[2-cyclopropylsulfonyl]-4-[[1-(2-(hydroxyethyl)pyrazol-4-yl]amino]phenyl]thiazol-2-yl]cyclohexyl]carbamate]", "values": [
      {"measurement": "half-life at 1 μM", "setting": "[2]", "result": 1.12, "unit": "h"},
      {"measurement": "half-life at 1 μM", "setting": "[3]", "result": 1.87, "unit": "h"},
      {"measurement": "IC50", "setting": "WI-38 cells", "result": "> 25000", "unit": "nM"},
      {"measurement": "IC50", "setting": "Daudi cells", "result": 7, "unit": "nM"}
    ]},
    {"molecule": "CC(C)OC(=O)NC1CCC(c2ncc(-c3ccc(Nc4cnn(CCF)c4)cc3S(=O)(=O)C3CC3)s2)CC1", "note": "(stereo not drawn) [Example 85, isopropyl trans-N-[4-[5-[2-cyclopropylsulfonyl]-4-[[1-(2-fluoroethyl)pyrazol-4-yl]amino]phenyl]thiazol-2-yl]cyclohexyl]carbamate]", "values": [
      {"measurement": "half-life at 1 μM", "setting": "[2]", "result": 1.37, "unit": "h"},
      {"measurement": "half-life at 1 μM", "setting": "[3]", "result": 0.85, "unit": "h"},
      {"measurement": "IC50", "setting": "WI-38 cells", "result": 17000, "unit": "nM"},
      {"measurement": "IC50", "setting": "Daudi cells", "result": 0.6, "unit": "nM"}
    ]},
    {"molecule": "CC(C)OC(=O)NC1CCC(c2ncc(-c3ccc(Nc4cnn(C5COC5)c4)cc3S(=O)(=O)C3CC3)s2)CC1", "note": "(stereo not drawn) [Example 86, isopropyl trans-N-[4-[5-[2-cyclopropylsulfonyl]-4-[[1-(oxetan-3-yl)pyrazol-4-yl]amino]phenyl]thiazol-2-yl]cyclohexyl]carbamate]", "values": [
      {"measurement": "half-life at 1 μM", "setting": "[2]", "result": 1.78, "unit": "h"},
      {"measurement": "half-life at 1 μM", "setting": "[3]", "result": 1.4, "unit": "h"},
      {"measurement": "IC50", "setting": "WI-38 cells", "result": "> 25000", "unit": "nM"},
      {"measurement": "IC50", "setting": "Daudi cells", "result": 3, "unit": "nM"}
    ]}
  ]
}
